According to ChEMBL document CHEMBL4265980, “Hemozoin inhibiting 2-phenylbenzimidazoles active against malaria parasites” (Eur J Med Chem, 2018):
Calls of active or inactive are those of the source. The calls are words filed in the database; no cut-off is given here.

Key:
[1] = system: Plasmodium falciparum; test: Antiplasmodial activity against asexual erythrocyte stage of chloroquine-sensitive Plasmodium falciparum NF54 infected in human red blood cells after 48 hrs by lactate dehydrogenase assay; format: functional, organism-based; conditions: for IC50: NF54, 48 h
[2] = Inhibition of beta hematin formation after 5 to 6 hrs by NP40 detergent-based assay
[3] = Resistance index, ratio of IC50 for asexual erythrocyte stage of chloroquine-resistant Plasmodium falciparum Dd2 infected in human red blood cells to IC50 for asexual erythrocyte stage of chloroquine-sensitive Plasmodium falciparum NF54 infected in human red blood cells; format: functional
[4] = system: CHO; test: Cytotoxicity against CHO cells by MTT assay; format: cell-based; conditions: Cricetulus griseus
[5] = system: Plasmodium falciparum; test: Antiplasmodial activity against asexual erythrocyte stage of chloroquine-resistant Plasmodium falciparum Dd2 infected in human red blood cells after 48 hrs by lactate dehydrogenase assay; format: functional, organism-based; conditions: Dd2, 48 h
[6] = Selectivity index, ratio of IC50 for CHO cells to IC50 for asexual erythrocyte stage of chloroquine-sensitive Plasmodium falciparum NF54 infected in human red blood cells; format: toxicity, cell-based; conditions: Chinese hamster, read-out: Ratio IC50
[7] = Selectivity index, ratio of IC50 for CHO cells to IC50 for asexual erythrocyte stage of chloroquine-resistant Plasmodium falciparum Dd2 infected in human red blood cells; format: toxicity, cell-based; conditions: Chinese hamster, read-out: Ratio IC50
[8] = system: Plasmodium falciparum; test: Antiplasmodial activity against Plasmodium falciparum NF54 assessed as decrease in hemozoin levels after 32 hrs by spectrophotometric analysis; format: functional, organism-based
[9] = system: Plasmodium falciparum; test: Antiplasmodial activity against Plasmodium falciparum NF54 assessed as increase in undigested hemoglobin levels after 32 hrs by spectrophotometric analysis; format: functional, organism-based

Row | Compound | IC50 ([1]; read-out: IC50) | IC50 ([1]; read-out: pIC50 (converted)) | 1/IC50 [2] | IC50 [2] | also measured
1 | O=C(O)c1cncc(Br)c1 |  |  |  |  | Activity [1]: inactive; inhibition [2]: inactive
2 | O=C(Nc1ccc(-c2nc3ccccc3[nH]2)cc1)c1cc([N+](=O)[O-])cc([N+](=O)[O-])c1 | 0.67 µM | 0.676 µM | 0.0752 µM⁻¹ | 13.3 µM | Ratio IC50 [3]: 0.46; IC50 [4]: 206 µM; IC50 [5]: 0.31 µM; selectivity ratio [6]: 308; selectivity ratio [7]: 665
3 | O=C(Nc1ccc(-c2nc3ccccc3[nH]2)cc1)c1cccc(C(F)(F)F)c1 | 1.34 µM | 1.35 µM | 0.0356 µM⁻¹ | 28.1 µM | 
4 | Nc1ccc(-c2nc3ccccc3[nH]2)cc1 |  |  |  |  | Activity [1]: inactive; inhibition [2]: inactive
5 | CNC(=O)c1cncc(Br)c1 |  |  |  |  | Activity [1]: inactive; inhibition [2]: inactive
6 | O=C(Nc1ccc(-c2nc3ccccc3[nH]2)cc1)c1cncc(C(F)(F)F)c1 | 0.8 µM | 0.794 µM | 0.0602 µM⁻¹ | 16.6 µM | Ratio IC50 [3]: 1.4; IC50 [4]: 35 µM; IC50 [5]: 1.1 µM; selectivity ratio [6]: 44; selectivity ratio [7]: 32
7 | O=C(Nc1ccccc1)c1cncc(Br)c1 |  |  |  |  | Activity [1]: inactive; inhibition [2]: inactive
8 | CC(=O)Nc1ccccc1 |  |  |  |  | Activity [1]: inactive; inhibition [2]: inactive
9 | O=C(Nc1ccc(-c2nc3ccccc3[nH]2)cc1)c1cccs1 | 7.2 µM | 7.24 µM | 0.0236 µM⁻¹ | 42.4 µM | 
10 | CC[C@H]1CN2CCc3cc(OC)c(OC)cc3[C@@H]2C[C@@H]1C[C@H]1NCCc2cc(OC)c(OC)cc21 [EMETINE] |  |  |  |  | IC50 [4]: 0.12 µM
11 | CC(C)(C)c1ccc(C(=O)Nc2ccc(-c3nc4ccccc4[nH]3)cc2)cc1 | 2 µM | 2 µM | 0.0028 µM⁻¹ | 358 µM | 
12 | c1ccc2[nH]cnc2c1 |  |  |  |  | Activity [1]: inactive; inhibition [2]: inactive
13 | O=C(Nc1ccc(-c2nc3ccccc3[nH]2)cc1)c1cccnc1 | 11.6 µM | 11.5 µM | 0.0281 µM⁻¹ | 35.6 µM | 
14 | CC(=O)Nc1ccc(-c2nc3ccccc3[nH]2)cc1 |  |  |  |  | Activity [1]: inactive; inhibition [2]: inactive
15 | O=C(Nc1ccc(-c2nc3ccccc3[nH]2)cc1)c1cncc(Br)c1 | 0.41 µM | 0.407 µM | 0.0313 µM⁻¹ | 32 µM | Activity [8]: Active; Activity [9]: Active; Ratio IC50 [3]: 2.4; IC50 [4]: 189 µM; IC50 [5]: 0.96 µM; selectivity ratio [6]: 461; selectivity ratio [7]: 197
16 | O=C(Nc1ccc(-c2nc3ccccc3[nH]2)cc1)c1cc(Cl)nc(Cl)c1 | 0.53 µM | 0.525 µM | 0.0595 µM⁻¹ | 16.8 µM | Ratio IC50 [3]: 0.64; IC50 [4]: 184 µM; IC50 [5]: 0.34 µM; selectivity ratio [6]: 347; selectivity ratio [7]: 541

Second part, led by results:

Row | IC50 ([1]; read-out: IC50) | IC50 ([1]; read-out: pIC50 (converted)) | 1/IC50 [2] | IC50 [2] | Compound | also measured
17 | 1.21 µM | 1.2 µM | 0.0398 µM⁻¹ | 25.1 µM | O=C(Nc1ccc(-c2nc3ccccc3[nH]2)cc1)c1cccc(Cl)c1 | 
18 | 5.5 µM | 5.5 µM | 0.0257 µM⁻¹ | 38.9 µM | COc1ccccc1C(=O)Nc1ccc(-c2nc3ccccc3[nH]2)cc1 | 
19 | 1.3 µM | 1.29 µM | 0.0408 µM⁻¹ | 24.5 µM | O=C(Nc1ccc(-c2nc3ccccc3[nH]2)cc1)c1cccc(Br)c1 | 
20 | 12.3 µM | 12.3 µM | 0.0346 µM⁻¹ | 28.9 µM | O=C(Nc1ccc(-c2nc3ccccc3[nH]2)cc1)c1ccccc1[N+](=O)[O-] | 
21 | 5.9 µM | 5.89 µM | 0.0119 µM⁻¹ | 84.1 µM | O=C(Nc1ccc(-c2nc3ccccc3[nH]2)cc1)c1ccco1 | 
22 | 1.2 µM | 1.2 µM | 0.0215 µM⁻¹ | 46.6 µM | O=C(Nc1ccc(-c2nc3ccccc3[nH]2)cc1)c1ccc[nH]1 | 
23 | 15 µM | 15.1 µM | 0.0262 µM⁻¹ | 38.2 µM | O=C(Nc1ccc(-c2nc3ccccc3[nH]2)cc1)c1ccccc1Cl | 
24 |  | 257 µM | 0.0003 µM⁻¹ | 3900 µM | O=C(Nc1ccc(-c2nc3ccccc3[nH]2)cc1)c1ccccc1 | 
25 | 64 µM | 64.6 µM | 0.0006 µM⁻¹ | 1790 µM | O=C(Nc1ccc(-c2nc3ccccc3[nH]2)cc1)c1ccc(Cl)cc1 | 
26 | 7.2 µM | 7.24 µM | 0.0111 µM⁻¹ | 90 µM | O=C(Nc1ccc(-c2nc3ccccc3[nH]2)cc1)c1ccc(Cl)cc1Cl | 
